The values below come from US11149035B2, “Chemical compounds as H—PGDS inhibitors” (GlaxoSmithKline Intellectual Property Development Limited, priority 2017, dated 2021).

Each structure is given as a SMILES string.

For this assay, the target named is T1, haematopoietic prostaglandin D synthase (H-PGDS) (Homo sapiens, UniProt O60760).
T1 construct: Full length human H-PGDS cDNA (Invitrogen Ultimate ORF IOH13026) was amplified by PCR; 6-His (N); TEV protease cleavage site (N); made in house; host or cells: E. coli BL21 (DE3*)
T1 sequence (O60760 whole entry): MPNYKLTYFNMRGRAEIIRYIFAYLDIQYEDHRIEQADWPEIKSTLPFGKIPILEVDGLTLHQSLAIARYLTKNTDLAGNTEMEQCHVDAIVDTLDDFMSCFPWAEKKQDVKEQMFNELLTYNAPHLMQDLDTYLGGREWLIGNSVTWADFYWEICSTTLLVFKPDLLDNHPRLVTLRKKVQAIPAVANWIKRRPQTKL
Description: H-PGDS RapidFire high throughput mass spectrometry assay (conversion of PGH2 to PGD2). The assay is classed as biochemical. The settings on record: 10 nM H-PGDS, PGH2 formed in situ by COX-2 from arachidonic acid; four parameter curve fit; read-out: Potency Range (mean pIC50) (converted). The protocol:
The H-PGDS RapidFire™ mass spectrometric assay monitors conversion of prostaglandin H2 (PGH2) to prostaglandin D2 (PGD2) by haematopoietic prostaglandin D synthase (H-PGDS). In the assay format described here, the substrate (PGH2) is formed in situ by the action of cyclooxygenase-2 on arachidonic acid. This first step is set up to be fast, and generates a burst of PGH2 at ˜10 μM. The PGH2 is then further converted to PGD2 by the H-PGDS enzyme. […] Plates are then read on the RapidFire™ high throughput solid phase extraction system (Agilent) which incorporates a solid phase extraction step coupled to a triple quadrupole mass spectrometer (AB SCIEX). Relative levels of PGD2 and PGF2α, which acts as a surrogate for substrate, are measured and a percent conversion calculated. Inhibitors are characterised as compounds which lower the conversion of PGH2 to PGD2.
Full length human H-PGDS cDNA (Invitrogen Ultimate ORF IOH13026) was amplified by PCR with the addition of a 5′ 6-His tag and TEV protease cleavage site. The PCR product was digested with NdeI and XhoI and ligated into pET22b+ (Merck Novagen®). Expression was carried out in E. coli strain BL21 (DE3*) using auto-induction Overnight Express™ Instant TB medium (Merck Novagen®) supplemented with 1% glycerol. The culture was first grown at 37° C. and the temperature was reduced to 25° C. when OD600 reached 2.0. Cells were harvested by centrifugation after a further 18 hours. 10 g of E. coli cell pellet was suspended to a total volume of 80 mL in lysis buffer (20 mM Tris-Cl pH 7.5, 300 mM NaCl, 20 mM imidazole, 5 mM β-mercaptoethanol, 10% glycerol). 1 mg/mL protease inhibitors (Protease Inhibitor Cocktail Set III, Merck Calbiochem®) and 1 mg/mL lysozyme were added to the cell suspension. The suspension was then sonicated for 5 min (UltraSonic Processor VCX 750, Cole-Parmer Instrument Co.) with a micro probe (50% amplitude, 10 sec on/off) and then centrifuged at 100,000 g for 90 minutes (at 4° C.). The supernatant was loaded onto a Ni-NTA HiTrap column (5 mL, GE Healthcare, pre-equilibrated in lysis buffer). The column was washed with 10 column volumes of lysis buffer and eluted with lysis buffer containing 500 mM imidazole. The pooled protein peak fractions were concentrated using a 10 kDa centrifugal filter at 3500 g and 4° C. (Amicon Ultra-15 centrifugal filter unit with Ultracel-10 membrane from Millipore). Further purification of the concentrated protein was carried out using gel filtration chromatography on a HiLoad 26/600 Superdex 75 preparative grade column (GE Healthcare Life Sciences) using 50 mM Tris pH 7.5, 50 mM NaCl, 1 mM dithiothreitol, 1 mM MgCl2. Fractions containing the protein were pooled, concentrated as described above, and stored at −80° C.
The full length human COX-2 gene (accession number L15326) was amplified by PCR to generate an EcoRI—HindIII fragment containing an in-frame FLAG tag. This was subcloned into pFastBac 1 (Invitrogen). The COX-2 FLAG plasmid was recombined into the baculovirus genome according to the BAC-to-BAC protocol described by Invitrogen. Transfection into Spodoptera frugiperda (Sf9) insect cells was performed using Cellfectin (Invitrogen), according to the manufacturer's protocol. Super Sf9 cells were cultured in EX420 media (SAFC Biosciences) to a density of approximately 1.5×10^6 cells/mL within a wave bioreactor. Recombinant virus was added at a Multiplicity of Infection (MOI) of 5 and the culture was allowed to continue for 3 days. Cells were harvested using a continuous feed centrifuge run at 2500 g at a rate of approximately 2 L/min with cooling. The resultant cell slurry was re-centrifuged in pots (2500 g, 20 min, 4° C.) and the cell paste was stored at −80° C. 342 g of cell paste was re-suspended to a final volume of 1600 mL in a buffer of 20 mM Tris-Cl pH 7.4, 150 mM NaCl, 0.1 mM EDTA, 1.3% w/v n-octyl-[…] containing 20 Complete EDTA-free Protease Inhibitor Cocktail tablets (Roche Applied Science). […]

Take `O=C(N[C@H]1CC[C@H](N2CC(F)(F)C2)CC1)c1cnc2nc(C3CC3)ccc2c1` [Example 54, 7-Cyclopropyl-N-(trans-4-(3,3-difluoroazetidin-1-yl)cyclohexyl)-1,8-naphthyridine-3-carboxamide]: the IC50 is 10 to 79.4 nM.
`C[C@H]1CCN1c1nc2ncc(C(=O)N[C@H]3CC[C@H](C(C)(C)O)CC3)cc2cc1Cl` [Example 58, 6-Chloro-N-(trans-4-(2-hydroxypropan-2-yl)cyclohexyl)-7-((S)-2-methylazetidin-1-yl)-1,8-naphthyridine-3-carboxamide]: the IC50 is less than 10 nM.
The value for `O=C(N[C@H]1C[C@](O)(C(F)(F)F)C1)c1cnc2nc(C3CC3)c(Cl)cc2c1` [Example 77, 6-Chloro-7-cyclopropyl-N-((1s,3s)-3-hydroxy-3-(trifluoromethyl)cyclobutyl)-1,8-naphthyridine-3-carboxamide] was less than 10 nM; that for `O=C(N[C@H]1CCNC1=O)c1cnc2nc(C3CC3)c(Cl)cc2c1` [Example 71, (S)-6-Chloro-7-cyclopropyl-N-(2-oxopyrrolidin-3-yl)-1,8-naphthyridine-3-carboxamide] was less than 10 nM; that for `COc1ccc2cc(C(=O)N[C@H]3CC[C@H](C(C)(C)O)CC3)cnc2n1` [Example 50, N-(trans-4-(2-Hydroxypropan-2-yl)cyclohexyl)-7-methoxy-1,8-naphthyridine-3-carboxamide] was 10 to 79.4 nM.
Take `C[C@@H]1CNC(=O)[C@H]1NC(=O)c1cnc2nc(N3CC[C@@H]3C)c(Cl)cc2c1` [Example 67, 6-Chloro-N-((3S,4R)-4-methyl-2-oxopyrrolidin-3-yl)-7-((S)-2-methylazetidin-1-yl)-1,8-naphthyridine-3-carboxamide]: the IC50 was less than 10 nM.
For the molecule `O=C(N[C@H]1CCNC1=O)c1cnc2nc(N3CCC3)ccc2c1` [Example 19, (S)-7-(Azetidin-1-yl)-N-(2-oxopyrrolidin-3-yl)-1,8-naphthyridine-3-carboxamide], the IC50 was 10 to 79.4 nM.
The value for `C[C@]1(O)CC[C@H](NC(=O)c2cnc3nc(C4CC4)ccc3c2)CC1` [Example 48, 7-Cyclopropyl-N-((1r,4r)-4-hydroxy-4-methylcyclohexyl)-1,8-naphthyridine-3-carboxamide] was 10 to 79.4 nM; that for `O=C(N[C@H]1CCNC1=O)c1cnc2cc(C3CC3)ncc2c1` [Example 29, (S)-7-Cyclopropyl-N-(2-oxopyrrolidin-3-yl)-1,6-naphthyridine-3-carboxamide] was 10 to 79.4 nM.
As to `C[C@]1(O)C[C@@H](NC(=O)c2cnc3cc(N4CCC4)ncc3c2)C1` [Example 15, 7-(Azetidin-1-yl)-N-((1s,3s)-3-hydroxy-3-methylcyclobutyl)-1,6-naphthyridine-3-carboxamide], the IC50 was 10 to 79.4 nM.
Consider `C[C@H]1CCN1c1nc2ncc(C(=O)N[C@H]3C[C@@](C)(O)C3)cc2cc1Cl` [Example 63, 6-chloro-N-((1s,3R)-3-hydroxy-3-methylcyclobutyl)-7-((S)-2-methylazetidin-1-yl)-1,8-naphthyridine-3-carboxamide], for which the IC50 was less than 10 nM.
On to `O=C(N[C@H]1CC[C@H](N[C@H](CO)C(F)(F)F)CC1)c1cnc2cc(C3CC3)ncc2c1` [Example 37, 7-Cyclopropyl-N-((trans)-4-(((R)-1,1,1-trifluoro-3-hydroxypropan-2-yl)amino)cyclohexyl)-1,6-naphthyridine-3-carboxamide], for which the IC50 is 10 to 79.4 nM.
`CC(C)(O)C1CC2(CC(NC(=O)c3cnc4cc(C5CC5)ncc4c3)C2)C1` (racemic) [Example 34, 7-Cyclopropyl-N-(6-(2-hydroxypropan-2-yl)spiro[3.3]heptan-2-yl)-1,6-naphthyridine-3-carboxamide]: the IC50 was less than 10 nM.
Under `O=C(N[C@H]1C[C@](O)(C(F)(F)F)C1)c1cnc2nc(C3CC3)ccc2c1` [Example 53, 7-cyclopropyl-N-((1s,3s)-3-hydroxy-3-(trifluoromethyl)cyclobutyl)-1,8-naphthyridine-3-carboxamide] stands 100 to 1000 nM.
Under `CC(C)(O)[C@H]1CC[C@H](NC(=O)c2cnc3cc(C4CC4)ncc3c2)CC1` [Example 10, 7-Cyclopropyl-N-((trans)-4-(2-hydroxypropan-2-yl)cyclohexyl)-1,6-naphthyridine-3-carboxamide] stands 10 to 79.4 nM; under `CC(C)(O)[C@H]1CC[C@H](NC(=O)c2cnc3nc(NCC(F)F)ccc3c2)CC1` [Example 16, 7-((2,2-Difluoroethyl)amino)-N-(trans-4-(2-hydroxypropan-2-yl)cyclohexyl)-1,8-naphthyridine-3-carboxamide], 100 to 1000 nM.
`O=C(N[C@H]1C[C@](O)(C(F)(F)F)C1)c1cnc2cc(C3CC3)ncc2c1` [Example 40, 7-Cyclopropyl-N-((1s,3s)-3-hydroxy-3-(trifluoromethyl)cyclobutyl)-1,6-naphthyridine-3-carboxamide]: the IC50 is 100 to 1000 nM.
The value for `O=C(N[C@H]1CC[C@H](N2CC(F)C2)CC1)c1cnc2cc(C3CC3)ncc2c1` [Example 35, 7-Cyclopropyl-N-(trans-4-(3-fluoroazetidin-1-yl)cyclohexyl)-1,6-naphthyridine-3-carboxamide] was 10 to 79.4 nM.
Under `COc1ncc2cc(C(=O)N[C@H]3CC[C@H](C(C)(C)O)CC3)cnc2n1` [Example 80, N-((trans)-4-(2-Hydroxypropan-2-yl)cyclohexyl)-2-methoxypyrido[2,3-d]pyrimidine-6-carboxamide] stands 100 to 1000 nM; under `CC(C)(O)[C@H]1CC[C@H](NC(=O)c2cnc3nc(N4CCC4)c(Cl)cc3c2)CC1` [Example 25, 7-(Azetidin-1-yl)-6-chloro-N-(trans-4-(2-hydroxypropan-2-yl)cyclohexyl)-1,8-naphthyridine-3-carboxamide], less than 10 nM; under `CC1CCN1c1ccc2cc(C(=O)N[C@H]3CC[C@H](C(C)(C)O)CC3)cnc2n1` (mixture of isomers) [Example 7, N-(trans-4-(2-Hydroxypropan-2-yl)cyclohexyl)-7-(2-methylazetidin-1-yl)-1,8-naphthyridine-3-carboxamide], 10 to 79.4 nM.
With `CC(C)(O)[C@H]1CC[C@H](NC(=O)c2cnc3nc(N4CCC4)ncc3c2)CC1` [Example 79, 2-(Azetidin-1-yl)-N-((trans)-4-(2-hydroxypropan-2-yl)cyclohexyl)pyrido[2,3-d]pyrimidine-6-carboxamide], the IC50 was 10 to 79.4 nM.
On to `C[C@H]1CCN1c1nc2ncc(C(=O)NC3CC4(C3)CC(C(C)(C)O)C4)cc2cc1Cl` (stereo partly drawn) [Example 61, (S)-6-Chloro-N-(6-(2-hydroxypropan-2-yl)spiro[3.3]heptan-2-yl)-7-(2-methylazetidin-1-yl)-1,8-naphthyridine-3-carboxamide], for which the IC50 is less than 10 nM.
Regarding `CC(C)(O)[C@H]1C[C@H](NC(=O)c2cnc3cc(C4CC4)ncc3c2)C1` [Example 32, 7-Cyclopropyl-N-(trans-3-(2-hydroxypropan-2-yl)cyclobutyl)-1,6-naphthyridine-3-carboxamide], the IC50 was 10 to 79.4 nM.
On to `O=C(N[C@H]1C[C@@H](N[C@H](CO)C(F)(F)F)C1)c1cnc2nc(C3CC3)ccc2c1` [Example 68, 7-Cyclopropyl-N-(cis-3-(((R)-1,1,1-trifluoro-3-hydroxypropan-2-yl)amino)cyclobutyl)-1,8-naphthyridine-3-carboxamide], for which the IC50 was 100 to 1000 nM.
